From patent US7939569B1, “Aniline analogs as glycogen synthase activators” (Hoffmann-La Roche Inc., priority 2009, dated 2011)

Tested on: glycogen synthase
Assay: Glycogen Synthase (GS) Assay
Assay type: biochemical
Conditions: for EC50: compound concentration needed to give 50% maximum activation; for GS SC200: compound concentration needed to stimulate 200% of the enzyme activity
Description: Twelve μL per well of substrate solution containing glycogen (4.32 mg/'ml), 2.67 mM UDP-glucose, 21.6 mM phospho(enol)pyruvate and 2.7 mM NADH in 30 mM glycylglycine, pH 7.3 buffer was added into a polystyrene 384-well assay plate (BD Biosciences).
Compound solutions (8 μL/well) at various concentrations (0-300 μM) were added to the assay plate (columns 5-24). Compound solution contains 30 mM glycylglycine, pH 7.3, 40 mM KCl, 20 mM MgCl2, 9.2% DMSO, with (columns 15-24) or without (columns 5-14) 20 mM glucose 6-phosphate.
Enzyme solution (12 μL/well) containing glycogen synthase (16.88 μg/ml), pyruvate kinase (0.27 mg/ml), lactate dehydrogenase (0.27 mg/ml) in 50 mM Tris-HCl, pH 8.0, 27 mM DTT and bovine serum albumin (BSA, 0.2 mg/ml) was added to the assay plate (columns 3-24). As a blank control, enzyme solution without glycogen synthase was added into the top half wells of columns 1-2. To the bottom half wells of columns 1-2 were added a known activator, glucose 6-phosphate (at final concentration 5 mM) in addition to the enzyme solution. The reaction mixture was incubated at room temperature. The assay plate was then read for absorbance at 340 nm on an Envision reader every 3 minutes up to a total of 15 minutes.
The enzyme activity (with or without compound) was calculated by the reaction rate and represented by the optical density change (SOD) per minute. Percent stimulation of glycogen synthase activity by a compound at various concentrations was calculated by the following formula: % stimulation=100*Rs/Rt, Where Rs is the reaction rate of the enzyme in the presence of compound and Rt is the reaction rate of the enzyme in the absence of compound.
SC200 is defined as the compound concentration that is needed to stimulate 200% of the enzyme activity. EC50 is defined as the compound concentration that is needed to give 50% maximum activation.

SMILES | EC50 | GS SC200
O=C(Nc1cccc(COc2ccc(-c3ccc(F)cc3F)cc2)c1)C1CCC[C@H]1C(=O)O (stereo in doubt) [Example 3, (1R,2R)-2-[3-(2′,4′-Difluoro-biphenyl-4-yloxymethyl)-phenylcarbamoyl]-cyclopentanecarboxylic acid] | 4.4 µM | 1.3 µM
O=C(O)[C@H]1CCC[C@H]1C(=O)Nc1cccc(COc2ccc(-c3ccc(F)cc3F)cc2)c1 (stereo in doubt) [Example 6, (1S,2R)-2-[3-(2′,4′-Difluoro-biphenyl-4-yloxymethyl)-phenylcarbamoyl]-cyclopentanecarboxylic acid] | 3.14 µM | 0.77 µM
O=C(Nc1cccc(COc2ccc(-c3ccc(F)cc3F)cc2)c1)[C@H]1CCC[C@H]1C(=O)O [Example 5, (1R,2S)-2-[3-(2′,4′-Difluoro-biphenyl-4-yloxymethyl)-phenylcarbamoyl]-cyclopentanecarboxylic acid] | 2.84 µM | 0.65 µM
CS(=O)(=O)Nc1cccc(COc2ccc(-c3cc(F)c(F)cc3F)cc2)c1 [Example 10, N-[3-(2′,4′,5′-Trifluoro-biphenyl-4-yloxymethyl)-phenyl]-methanesulfonamide] | 5.71 µM | 2.41 µM
O=S(=O)(Nc1cccc(COc2ccc(-c3cc(F)c(F)cc3F)cc2)c1)C(F)(F)F [Example 12, C,C,C-Trifluoro-N-[3-(2′,4′,5′-trifluoro-biphenyl-4-yloxymethyl)-phenyl]methanesulfonamide] | 1.48 µM | 0.95 µM
COc1cc(F)c(F)cc1-c1ccc(OCc2cccc(NS(=O)(=O)C(F)(F)F)c2)cc1 [Example 13, N-[3-(4′,5′-Difluoro-2′-methoxy-biphenyl-4-yloxymethyl)-phenyl]-C,C,C-trifluoromethanesulfonamide] | 0.44 µM | 0.18 µM

Further compounds by falling EC50, results first:

EC50 | SMILES | GS SC200
6.96 µM | O=C(O)CCC(=O)Nc1cccc(COc2ccc(-c3ccc(F)cc3F)cc2)c1 [Example 1, N-[3-(2′,4′-Difluoro-biphenyl-4-yloxymethyl)-phenyl]-succinamic acid] | 2.69 µM
6.37 µM | COc1cc(F)c(F)cc1-c1ccc(OCc2cccc(N3CCC[C@H]3CC(=O)O)c2)cc1 [Example 8, {(S)-1-[3-(4′,5′-Difluoro-2′-methoxy-biphenyl-4-yloxymethyl)-phenyl]-pyrrolidin-2-yl}-acetic acid] | 2.43 µM
6.15 µM | O=C(O)C1CCC[C@@H]1C(=O)Nc1cccc(COc2ccc(-c3ccc(F)cc3F)cc2)c1 (stereo in doubt) [Example 4, (1S,2S)-2-[3-(2′,4′-Difluoro-biphenyl-4-yloxymethyl)-phenylcarbamoyl]-cyclopentanecarboxylic acid] | 2.09 µM
5.93 µM | O=C(Nc1cccc(COc2ccc(-c3ccc(F)cc3F)cc2)c1)[C@H]1CCC[C@H]1C(=O)O (racemic) [Example 2, (trans)-2-[3-(2′,4′-Difluoro-biphenyl-4-yloxymethyl)-phenylcarbamoyl]-cyclopentanecarboxylic acid] | 3.24 µM
3.71 µM | COc1cc(F)c(F)cc1-c1ccc(OCc2cccc(N3CCC[C@H]3C(=O)O)c2)cc1 [Example 7, (S)-1-[3-(4′,5′-Difluoro-2′-methoxy-biphenyl-4-yloxymethyl)-phenyl]-pyrrolidine-2-carboxylic acid] | 0.7 µM
2.75 µM | COc1cc(F)c(F)cc1-c1ccc(OCc2cccc(NS(C)(=O)=O)c2)cc1 [Example 11, N-[3-(4′,5′-Difluoro-2′-methoxy-biphenyl-4-yloxymethyl)-phenyl]-methanesulfonamide] | 1.1 µM
1.02 µM | COc1cc(F)c(F)cc1-c1ccc(OCc2cccc(N(CC(=O)O)C(C)=O)c2)cc1 [Example 9, {Acetyl-[3-(4′,5′-difluoro-2′-methoxy-biphenyl-4-yloxymethyl)-phenyl]-amino}-acetic acid] | 0.33 µM
